Test results as given in patent US11357862B2, “Peptide-conjugated nanoparticles for targeting, imaging, and treatment of prostate cancer” (Academia Sinica, priority 2016, dated 2022).

How the values were obtained:
[1] = Pharmacokinetics of doxorubicin formulations; assay type: in vivo, NOD/SCID mice; conditions: 2 mg doxorubicin/kg, tail vein
Procedure: Blood samples were drawn at selected time points, and quantities of doxorubicin were analyzed.

[2] = test system: PC3-Luc orthotopic tumors; test: Orthotopic implantation and therapeutic study; assay type: in vivo, SCID mice; conditions: doxorubicin 1 mg/kg, vinorelbine 2 mg/kg i.v. twice a week, docetaxel 5 mg/kg i.p. once a week, 4 weeks
Procedure: PC3 cells were transfected with Lenti-Luc virus (lentivirus containing the luciferase gene), and a stable PC3-Luc cell line was selected by puromycin screening. PC3-Luc cells (5×10^5 cells in 20 μl PBS per mouse) were orthotopically transplanted into the dorsal lobe of the prostate of SCID mice after anaesthesia with Avertin at a dose of 250 mg/kg. Seven days later, all mice bearing tumors were randomly divided into five groups (n=8 per group) based on photon flux indices detected using Xenogen IVIS® 200 Luminal Image. Tumor-bearing mice were treated with different formulations of anti-cancer drugs or PBS. Tumor development was recorded every 7 days. The body weights and survival rates were measured.
Mice were injected with vehicle (PBS), docetaxel (5 mg/kg), liposomal drugs, or targeting liposomal drugs (doxorubicin 1 mg/kg; vinorelbine 2 mg/kg).

[3] = test system: PC3 prostate cancer xenografts; test: Immunohistochemical localization of phages after i.v. injection; assay type: in vivo, SCID mice; conditions: co-injected with PC204
Procedure: (§1) SCID mice were injected s.c. with 5×10^6 prostate cancer cells. Once the prostate cancer xenografts reached a suitable size (about 200˜300 mm^3), the mice were injected i.v. with 2×10^9 pfu phages in the presence or absence of 100 μg synthetic peptides. After ten minutes, the mice were sacrificed and perfused with 50 ml PBS to remove unbound phages. Selected organs and xenograft tumors were removed, and the phage titer recovered by E. coli strain ER2738 was measured using IPTG/X-Gal spray. Partial organs and tumors were embedded using optimal cutting temperature compound (O.C.T.) to prepare sections for immunohistochemical staining.
The tissue samples from in vivo phage homing experiments were embedded in frozen blocks. Phage distribution in each tissue was assessed by first removing O.C.T. with cold PBS, and then fixing the frozen sections with 4% paraformaldehyde for 10 min. The sections were incubated with 1% BSA for 30 min to block non-specific binding. After washing, the sections were incubated with mouse anti-M13 antibodies at a dilution of 1:250 for 1 hour, followed by treatment with polymer-based SUPER SENSITIVE™ IC detection system. In brief, the sections were incubated with SUPER […]™ reagent for 20 min and poly-HRP reagent for 30 min. DAB was used as a chromogen to visualize peroxidase activity, and the reaction was stopped by the addition of PBS. […]

[4] = test system: PC3 prostate cancer xenografts; test: In vivo phage homing and peptide competitive inhibition; parameters: species or system SCID mice; conditions: co-injection with PC204
Procedure: as §1

[5] = test system: DU145 prostate cancer xenografts; test: as above; parameters: species or system SCID mice; conditions: co-injection with PC204
Procedure: as §1

Question: For COc1cccc2c1C(=O)c1c(O)c3c(c(O)c1C2=O)C[C@@](O)(C(=O)CO)C[C@@H]3O[C@H]1C[C@H](N)[C@H](O)[C@H](C)O1 [FD, doxorubicin], which “plasma pharmacokinetic profile of doxorubicin” value [1] is on record?
Answer: The value was “poor pharmacokinetic profile”.

Question: Which median survival times [2] does the source give for CC(=O)O[C@@]12CO[C@@H]1C[C@H](O)[C@@]1(C)C(=O)[C@H](O)C3=C(C)[C@@H](OC(=O)[C@H](O)[C@@H](NC(=O)OC(C)(C)C)c4ccccc4)C[C@@](O)([C@@H](OC(=O)c4ccccc4)[C@H]21)C3(C)C [docetaxel] here?
Answer: Its median survival times is 58 days.

Question: For “SP204: synthetic targeting peptide KQFSALPFNFYT, SEQ ID NO: 8, the ligand displayed on phage PC204 (Phage clone No. 204 displayed peptide sequence)”, which “phage immunoreactivity in tumor tissue on co-injection of PC204 with peptide” value [3] is on record?
Answer: The value was “no immunoreactivity was observed”.

Question: And the “inhibition of PC204 binding to tumor tissue by co-injected peptide” value [4]?
Answer: The value was 5.2 fold.

Question: What about the “inhibition of PC204 binding to tumor tissue by co-injected peptide” value [5] of the same compound?
Answer: Its value is 2.87 fold.
